Results on 19 molecules are retold here after patent US7128912B2, “Fibronectin binding protein compositions and methods of use” (The Texas A&M University System, priority 1997, dated 2006).

Sequences and labels used below:
B1: modified rFnBD-D: rFnBD-D chemically modified with EDC (protein)
chain: GQNSGNQSFEEDTEEDKPKYEQGGNIVDIDFDSVPQIHGQNKGNQSFEEDTEKDKPKYEHGGNIIDIDFDSVPHIHGFNKHTEIIEEDTNKDKPSYQFGGHNSVDFEEDTLPKVSGQNEGQQTIEEDTTPPIVP
modifications: left off: small tags and cut ends
notes: rFnBD-D chemically modified with EDC
B2: native rFnBD-D: recombinant version of the S. aureus Fn-binding MSCRAMM repeat domain (protein)
chain: GQNSGNQSFEEDTEEDKPKYEQGGNIVDIDFDSVPQIHGQNKGNQSFEEDTEKDKPKYEHGGNIIDIDFDSVPHIHGFNKHTEIIEEDTNKDKPSYQFGGHNSVDFEEDTLPKVSGQNEGQQTIEEDTTPPIVP
modifications: left off: small tags and cut ends

The subject of the first experiment is S. aureus.
Test: not given
The note with it: McGavin et al., 1991; cited from earlier work.
In the case of QFGGHNSVDFEEDT [D320-33], the “inhibition of binding of Fn to S. aureus / Fn-binding function” value was “could not inhibit binding of Fn to S. aureus”.

For another experiment, the system named is S. aureus. Description: Inhibition of Fn binding to S. aureus (rFnBD-D, EDC-modified rFnBD-D, immune IgG).
Conditions: not given
The experiment is classed as cell-based, Staphylococcus aureus. The text has this:
Based on this observation, the inventors hypothesized that only Fn-binding MSCRAMMs that lack binding activity should lead to blocking antibodies. A recombinant version of the Fn-binding MSCRAMM rFnBD-D was chemically modified with EDC as previously described (McGavin et al., 1991) and tested for its ability to inhibit Fn binding to S. aureus. […] The chemically modified rFnBD-D was then used to immunize rabbits. […] With efficiencies of approximately 98%, chemical modification had the advantage of providing a quick and efficient method for probing entire classes of amino acids. However, an inherent disadvantage in this global approach is that the contribution to binding of individual amino acids was not detected.
B1: the “inhibition of Fn binding to S. aureus” value is “no inhibitory activity”.
The same measure, in the same setting: to B2 belongs “inhibited Fn binding to S. aureus in a dose-dependent manner”.

The next experiment concerns S. aureus strain Cowan binding to immobilized fibronectin. The experiment in a line: Inhibition of biotinylated S. aureus binding to immobilized fibronectin by synthetic peptides (ELISA). The experiment is classed as cell-based, Staphylococcus aureus. The following applies: 250 μg peptide (FIG. 3B). How it is done: FIG. 2A, FIG. 2B and FIG. 2C. Inhibition of S. aureus binding to immobilized fibronectin by wild-type and mutant D3 peptides 1 through 21 (Table 3). NP indicates the amount of adherent bacteria in the absence of inhibitor. FIG. 2A. Peptides tested at 5 μg/well. FIG. 2B. Peptides tested at 50 μg/well. FIG. 2C. Peptides tested at 250 μg/well.
FIG. 3A and FIG. 3B. FIG. 3A. Inhibition of S. aureus binding to immobilized fibronectin by wild-type peptides D1 and D2 and mutant derivatives. NP indicates the amount of adherent bacteria in the absence of inhibitor. All peptides were tested at 10 μg/well. FIG. 3B. Inhibition of S. aureus binding to immobilized fibronectin by wild-type peptides D1. D2 and DU and mutant derivatives. NP indicates the amount of adherent bacteria in the absence of inhibitor. All peptides were tested at 250 μg/well.
S. aureus strain Cowan was cultured under constant rotation for 15 h at 37° C. in brain heart infusion (BHI; Difco) broth. Bacteria were harvested by centrifugation, resuspended in a bicarbonate buffer (50 mM NaHCO3, pH 8.5) to a final density of 10^10 cells/ml determined by comparing the absorbance at 600 nm of the sample with a previously prepared standard curve relating A600 to cells counted in a Petroff Hausser chamber. Bacterial cells were labeled with biotin by the addition of 100 μl of 1% NHS-biotin/ml of bacterial suspension (Pierce, Rockford, Ill.) in N,N-dimethylformamide. The staphylococcal cells were incubated with the NHS-biotin for 2 h at room temperature with constant rotation. The biotinylation reaction was stopped by removing the supernatant after centrifugation of the bacterial cells. The bacteria were then washed three times in PBS to remove unincorporated biotin. The bacterial cell suspensions were then adjusted to 1×10^10 cells/ml and the cells were stored at 4° C. in PBS, pH 7.4. To prevent unbiotinylated bacteria from growing and to reduce background, sodium azide and 0.1% BSA were added.
A series of peptides, based on the D3 repeat of S. aureus FnBPA, were synthesized to contain a proline residue at each position throughout the entire sequence (i.e., proline scan; Table 3). The mutated peptides were initially tested for their ability to inhibit biotinylated S. aureus binding to immobilized fibronectin. Wells on a 96-well Immulon II plate were coated with […] of a 30 μg/ml solution of purified Fn, either for 2 hr at room temperature or overnight at 4° C. Wells were washed three times with 1× phosphate buffered saline (PBS)-0.05% Tween-80 and blocked for 1 hr with PBS containing 0.01% Tween-80 and 1% BSA. After 1 hr, wells were washed again with PBS containing 0.05% Tween-80. Synthetic peptides were diluted to 5 mg/ml concentration in 1×PBS and tested at a concentration of 5 (FIG. 2A), 50 (FIG. 2B), or 250 μg/well (FIG. 2C). A volume of […] of the synthetic peptide was added to each well, after 15–25 min, followed by […] of biotinylated S. aureus cells. The plates were incubated for one hour at room temperature with slight agitation on a shaker. After 1 hr the wells were washed with PBS-0.05% Tween-80 and then incubated 30 min in 1:5000 dilution of secondary antibody streptavidin alkaline phosphatase. After 30 min, wells were washed again and developed with diethanolamine containing p-nitrophenyl phosphate (PNPP; 1 mg/ml) for 30 min at room temperature. The reaction was monitored at 405 nm.
Take “ADVVEYEEDTNPGPGQVTTESNLVEFDEEST [DU-14P]”: the “inhibitory activity compared to the wild type peptides” value is “inhibitory activity was detected”.
Still for that read-out and setting: to “ADVVEYEEDTNPPGGQVTTESNLVEFDEEST [DU-13P]” belongs “virtually no inhibitory activity”; to “QNKGNQSFEEDTEKDKPKYEHPGNIIDIDFDSVPHIHG [D2–22P]”, “virtually no inhibitory activity”.
Same read-out and setting: to “QNSGNQSFEEDTEEDKPKYEQPGNIVDIDFDSVPQIHG [D1–22P]” belongs “inhibitory activity was detected”.

Staying with this experiment, now noted: FIG. 2C, peptides at 250 μg/well; proline scan of D3.
As for KASYQFGGHNSVDFEEDTLPK [compound 2], the “ability of mutant D3 peptides to inhibit S. aureus binding to Fn” value (from here on “ability … to inhibit S. aureus binding to Fn”) is “inhibitory activity of peptides increased”.
Regarding KPPYQFGGHNSVDFEEDTLPK [compound 3], the “ability … to inhibit S. aureus binding to Fn” value is listed as “inhibitory activity of peptides increased”.
Turning to KPSPQFGGHNSVDFEEDTLPK [compound 4], the “ability … to inhibit S. aureus binding to Fn” value is “decreased ability to inhibit S. aureus binding to Fn”.
Consider KPSYQFGGHNPVDFEEDTLPK [compound 11], for which the “ability … to inhibit S. aureus binding to Fn” value is “inhibitory activity of peptides increased”.
Still for that read-out and setting: to KPSYQFGGHNSVDFEEDPLPK [compound 18] belongs “enhanced S. aureus Fn binding ability”; to KPSYQFGGHNSVDFEEDTLPP [compound 21], “enhanced S. aureus Fn binding ability”; to KPSYQFGGHNSVDFEEDTPPK [compound 19], “enhanced S. aureus Fn binding ability”.
KPSYQFGGHNSVDFEEPTLPK [compound 17]: the “ability … to inhibit S. aureus binding to Fn” value was “enhanced S. aureus Fn binding ability”.
On the same count and under the same terms, to KPSYQFGGHNSVDFEPDTLPK [compound 16] belongs “enhanced S. aureus Fn binding ability”; to KPSYQFGPHNSVDFEEDTLPK [compound 8], “inhibitory activity of peptides increased”; to KPSYQFPGHNSVDFEEDTLPK [compound 7], “decreased ability to inhibit S. aureus binding to Fn”.
Consider PPSYQFGGHNSVDFEEDTLPK [compound 1], for which the “ability … to inhibit S. aureus binding to Fn” value is recorded as “inhibitory activity of peptides increased”.

The experiment is the same for the next values; noted with them: low concentration, 10 μg peptide (FIG. 3A).
Consider “QNKGNQSFEEDTEKDKPKYEHPGNIIDIDFDSVPHIHG [D2–22P]”, for which the “inhibitory activity compared with control samples (no peptide)” value was “no inhibitory activity”.
The same measure, in the same setting: to “QNSGNQSFEEDTEEDKPKYEQPGNIVDIDFDSVPQIHG [D1–22P]” belongs “no inhibitory activity”.
